How the values were obtained:
[1] = Rat Liver Microsome Stability Assay; conditions: rat liver microsomes 0.5 mg/mL, compound 1 μM; Qh 55 mL/minute/kg
Procedure: Aliquots (40 uL) at 0, 5, 10, 15, 25 and 40 minutes post NADPH addition (or compound addition for reactions in absence of NADPH) were transferred into individual 96-well plate wells containing 40 ng/ml of 8-cyclopently-1,3-dipropylxanthine (CPDPX, internal standard) in 160 uL acetonitrile:methanol (1:1 v/v).
The LC/MS/MS system consisted of an ultra high throughput RapidFire® 300 system (Agilent Technologies, Santa Clara, CA) coupled to a Triple Quad 5500 mass spectrometer (ABSciex, Foster City, CA). Sample load and wash were performed on a RapidFire® C4 cartridge using 0.1% formic acid in water as mobile phase A and sample elution using 0.1% formic acid in acetonitrile:methanol (1:1 v/v) as mobile phase B.
CLint, app (apparent intrinsic clearance) was calculated using the following equation for microsome stability.
[formula] • where “a” represents 45 grams of liver/kg of body weight for rat. • CLint,app (apparent intrinsic clearance) was calculated using the following equation for hepatocyte stability: • CLhep (hepatic clearance) was calculated using the following equation for microsomes
[formula] • using 55 mL/minute/kg as Qh (hepatic blood flow) for rat.

[2] = biological target: Recombinant full length human OGA enzyme (Homo sapiens (Human), UniProt O60502); assay: OGA Enzyme Inhibition Biochemical Assay; conditions: 1 nM OGA, 100 μM 4-MUGlcNAc, 90 minutes, pH 6.4
Procedure: Recombinant full length human OGA enzyme was purchased from Origene. 4-MUGlcNAc substrate was purchased from Sigma. All other reagents were purchased from Sigma or Fisher. Assay buffer consists of the McIlvaine buffer system, pH 6.4 (0.2M Na2HPO4 mixed with 0.1M citric acid) and 0.01% BSA. […] Reactions were incubated for 90 minutes at room temperature and quenched with 40 μl of 3M glycine, pH 10 and read on a Perkin Elmer Envision plate reader (Ex: 355 nm/Em: 460 nm). Compounds were tested with a 10-point dose-response starting from 20 μM with a 4-fold dilution. Data was fit using GraphPad Prism using a 4-parameter fit with variable slope.

P-gp (MDR1) = assay: MDR1-MDCK Efflux Ratio Assay; assay type: in vitro ADME; conditions: dog, MDR1-MDCK cells, pH 7.4, read-out: MDR1-MDCK Efflux Ratio (B-A/A-B)
Procedure: MDR1-MDCK cell monolayers were grown to confluence on microporous polyester membranes in 96-well Corning insert plates. The permeability assay buffer was Hanks' Balanced Salt Solution containing 10 mM HEPES at pH of 7.4. Loperamide (1 μM) was used as a positive control P-gp substrate. Propranolol and Bestatin (1 μM) were used as high and low permeability comparators, respectively.
Test compounds or positive control P-gp substrate/permeability comprators were added to respective apical and basolateral chambers for bidirectional assessment of permeability. Receiver buffer (transport buffer supplemented with 1% bovine serum albumin) was added to respective receiver chambers. MDR1-MDCK cells were incubated with test compounds at 37° C. with 5% CO2 for 2 hr. Samples were collected from the donor chamber at both 0 and 120 minutes, and from the receiver chamber at 120 minutes. Test and control compound concentrations were determined using LC-MS/MS analysis. Each determination was performed in triplicate.

OGA (S400 O-GLCNAC) = OGA (S400 O-GLCNAC) (Homo sapiens (Human), UniProt O60502); assay: Cellular OGA-Tau MSD Assay; assay type: cell-based; conditions: HEK-293T cells transfected with OGT and Tau-V5; Tau-S400-GlcNAc MSD readout
Sequence of OGA (S400 O-GLCNAC) (O60502 whole entry): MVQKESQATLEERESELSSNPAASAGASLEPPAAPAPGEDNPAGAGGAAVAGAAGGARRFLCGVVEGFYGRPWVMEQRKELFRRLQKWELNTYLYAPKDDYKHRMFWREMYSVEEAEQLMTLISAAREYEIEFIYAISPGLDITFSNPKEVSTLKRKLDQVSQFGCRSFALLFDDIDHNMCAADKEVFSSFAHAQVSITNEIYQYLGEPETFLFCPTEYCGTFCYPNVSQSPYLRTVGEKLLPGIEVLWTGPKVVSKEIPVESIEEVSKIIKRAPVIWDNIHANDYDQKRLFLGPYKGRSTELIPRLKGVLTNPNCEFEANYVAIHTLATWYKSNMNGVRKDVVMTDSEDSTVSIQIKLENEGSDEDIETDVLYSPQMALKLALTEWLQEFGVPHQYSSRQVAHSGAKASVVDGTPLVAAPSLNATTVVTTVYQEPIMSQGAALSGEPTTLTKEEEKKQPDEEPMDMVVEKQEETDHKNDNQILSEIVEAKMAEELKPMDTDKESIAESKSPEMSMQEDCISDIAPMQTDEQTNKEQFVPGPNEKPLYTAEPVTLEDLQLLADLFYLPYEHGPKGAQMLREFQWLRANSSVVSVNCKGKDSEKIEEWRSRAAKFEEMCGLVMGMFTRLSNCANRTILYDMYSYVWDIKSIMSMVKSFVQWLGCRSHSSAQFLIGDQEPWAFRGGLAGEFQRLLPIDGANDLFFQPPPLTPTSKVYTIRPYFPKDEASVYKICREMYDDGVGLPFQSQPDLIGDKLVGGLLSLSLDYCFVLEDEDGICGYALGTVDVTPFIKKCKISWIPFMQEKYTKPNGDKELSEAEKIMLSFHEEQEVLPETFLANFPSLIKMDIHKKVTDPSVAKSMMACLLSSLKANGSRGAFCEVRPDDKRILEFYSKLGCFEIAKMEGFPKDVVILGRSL
Procedure: HEK-293T cells were transfected with OGT and Tau-V5 plasmids using Lipofectamine and grown overnight. Next day, the cells were collected and re-plated at 1×10^5 cells per well in 96 well plates. Cells were incubated for 4 hr at 37° C., before compounds were added at 1 uM, with 3-fold dilutions in a 10-point titration. Cell plates were incubated with compounds overnight at 37° C. The next day media was removed from wells by gentle aspiration and 120 ul of 1× Cell Lysis buffer mixed with protease and phosphatase cocktail added to each well. A freeze thaw was performed at −80° C., then mixed before transferring 50 μl to MSD plates coated with V5-tag antibody to capture Tau. MSD Plates were incubated overnight at 4° C., on a plate shaker. The following day, plates were washed and incubated with Tau-S400-GlcNAc antibody for 2 hr and then developed with rabbit Sulfo-tag antibody. Final read out was carried out on an MSD 600 reader. The data was analyzed using Graph Pad or Genedata, the data was normalized and % activity versus log of compound concentration was plotted. The ICso values were obtained from a 4 parameter fit.

Sequence of Recombinant full length human OGA enzyme (O60502 whole entry): as above

| RLM % Qh (%) [1] [%] | IC50 [2] [nM] | efflux ratio at 2 hr (P-gp (MDR1)) | IC50 (OGA (S400 O-GLCNAC)) [nM] | efflux ratio at 2 h (P-gp (MDR1)) | Structure (SMILES) |
| --- | --- | --- | --- | --- | --- |
| 51 | < 1 | 9.3 | 8 | – | CC(=O)Nc1nc(F)c(CN2C[C@@]3(Cc4cc(N5CCOCC5)ncc4O3)C[C@@H]2C)s1 [Example 36, N-(4-Fluoro-5-(((2R,5′S)-5′-methyl-5-morpholino-3H-spiro[furo[2,3-c]pyridine-2,3′-pyrrolidin]-1′-yl)methyl)thiazol-2-yl)acetamide] |
| 89 | – | – | 24 | 5.4 | COc1cc2c(cn1)[C@@]1(C[C@H](C)N(Cc3sc(NC(C)=O)nc3F)C1)OC2 (single isomer, unassigned) [Example 75-b] |
| 75 | < 1 | 17.5 | 8 | – | CC(=O)Nc1nc(F)c(CN2C[C@@]3(Cc4cc(N5C[C@H](C)O[C@@H](C)C5)ncc4O3)C[C@@H]2C)s1 [Example 43, N-(5-(((2R,5′S)-5-((2S,6S)-2,6-Dimethylmorpholino)-5′-methyl-3H-spiro[furo[2,3-c]pyridine-2,3′-pyrrolidin]-1′-yl)methyl)-4-fluorothiazol-2-yl)acetamide] |
| 52 | 0.5 | 9.7 | 4.9 | – | CC(=O)Nc1nc(F)c(CN2C[C@@]3(Cc4cc(N5C[C@@H](C)O[C@@H](C)C5)ncc4O3)C[C@@H]2C)s1 [Example 39, N-(5-(((2R,5′S)-5-((2R,6S)-2,6-Dimethylmorpholino)-5′-methyl-3H-spiro[furo[2,3-c]pyridine-2,3′-pyrrolidin]-1′-yl)methyl)-4-fluorothiazol-2-yl)acetamide] |
| 62 | 1 | 14 | 5 | – | CC(=O)Nc1nc(F)c(CN2C[C@@]3(Cc4ncccc4O3)C[C@@H]2C)s1 (single isomer, unassigned) [Example 19-a] |
| 65 | < 1 | 19.5 | 8 | – | CC(=O)Nc1nc(F)c(CN2C[C@@]3(Cc4cc(N5C[C@@H](C)O[C@H](C)C5)ncc4O3)C[C@@H]2C)s1 [Example 41, N-(5-(((2R,5′S)-5-((2R,6R)-2,6-Dimethylmorpholino)-5′-methyl-3H-spiro[furo[2,3-c]pyridine-2,3′-pyrrolidin]-1′-yl)methyl)-4-fluorothiazol-2-yl)acetamide] |
| – | < 1 | – | 2 | – | COc1cc2c(cn1)O[C@]1(C2)C[C@H](C)N(Cc2sc(NC(C)=O)nc2F)C1 [Example 16, N-(4-Fluoro-5-(((2R,5′S)-5-methoxy-5′-methyl-3H-spiro[furo[2,3-c]pyridine-2,3′-pyrrolidin]-1′-yl)methyl)thiazol-2-yl)acetamide] |
| – | 91 | – | 59 | – | CC(=O)Nc1nc(F)c(CN2CC3(Cc4nc(O)cnc4O3)C[C@@H]2C)s1 (stereo partly drawn) [Example 51, N-(4-fluoro-5-(((5′S)-2-hydroxy-5′-methyl-7H-spiro[furo[2,3-b]pyrazine-6,3′-pyrrolidin]-1′-yl)methyl)thiazol-2-yl)acetamide] |
| – | 1 | – | 13 | – | CC(=O)Nc1nc(F)c(CN2C[C@@]3(Cc4cc(C)ncc4O3)C[C@@H]2C)s1 [Example 23, N-(5-(((2R,5′S)-5,5′-Dimethyl-3H-spiro[furo[2,3-c]pyridine-2,3′-pyrrolidin]-1′-yl)methyl)-4-fluorothiazol-2-yl)acetamide] |

Further lines, the compound ahead of its results:

| Structure (SMILES) | RLM % Qh (%) [1] [%] | IC50 [2] [nM] | efflux ratio at 2 hr (P-gp (MDR1)) | IC50 (OGA (S400 O-GLCNAC)) [nM] | efflux ratio at 2 h (P-gp (MDR1)) |
| --- | --- | --- | --- | --- | --- |
| CC(=O)Nc1ncc(CN2C[C@@]3(Cc4cc(C(F)(F)F)ncc4O3)C[C@@H]2C)s1 [Example 22, N-(5-(((2R,5′S)-5′-Methyl-5-(trifluoromethyl)-3H-spiro[furo[2,3-c]pyridine-2,3′-pyrrolidin]-1′-yl)methyl)thiazol-2-yl)acetamide] | 39 | 17 | 11 | 25 | – |
| COc1nccc2c1COC21CCCN(Cc2sc(NC(C)=O)nc2F)C1 (stereo not shown) [Example 81, N-(4-Fluoro-5-((4-methoxy-3H-spiro[furo[3,4-c]pyridine-1,3′-piperidin]-1′-yl)methyl)thiazol-2-yl)acetamide] | 78 | 1.1 | 2.5 | 15.1 | – |
| CC(=O)Nc1ncc(CN2CCCC3(CCCO3)C2)s1 (stereo not shown) [Example 52, N-(5-((1-Oxa-7-azaspiro[4.5]decan-7-yl)methyl)thiazol-2-yl)acetamide] | 74 | 180 | 2.6 | > 1000 | – |
| CC(=O)Nc1ncc(CN2CCCC3(C2)OCc2ccncc23)s1 (stereo not shown) [Example 74, N-(5-((1H-Spiro[furo[3,4-c]pyridine-3,3′-piperidin]-1′-yl)methyl)thiazol-2-yl)acetamide] | 75 | 13 | 36.5 | 22.6 | – |
| COc1cc2c(cn1)[C@]1(C[C@H](C)N(Cc3sc(NC(C)=O)nc3F)C1)OC2 (single isomer, unassigned) [Example 75-a] | 59 | – | – | 40 | 7.8 |
| COc1cc2c(cn1)[C@@]1(C[C@H](C)N(Cc3cnc(NC(C)=O)s3)C1)OC2 (single isomer, unassigned) [Example 76-b] | 89 | 160 | 8.9 | 38 | – |
| COc1nccc2c1COC21CCCN(Cc2cnc(NC(C)=O)s2)C1 (stereo not shown) [Example 82, N-(5-((4-Methoxy-3H-spiro[furo[3,4-c]pyridine-1,3′-piperidin]-1′-yl)methyl)thiazol-2-yl)acetamide] | 78 | 1.6 | 4.4 | 126 | – |
| CC(=O)Nc1nc(F)c(CN2CCCC3(C2)OCc2c3cc[nH]c2=O)s1 (stereo not shown) [Example 86, N-(4-Fluoro-5-((4-oxo-4,5-dihydro-3H-spiro[furo[3,4-c]pyridine-1,3′-piperidin]-1′-yl)methyl)thiazol-2-yl)acetamide] | 37 | 14.5 | 32.6 | 138 | – |
| COc1cccc2c1OC1(CCN(Cc3sc(NC(C)=O)nc3F)C1)C2 (stereo not shown) [Example 4, N-(4-Fluoro-5-((7-methoxy-3H-spiro[benzofuran-2,3′-pyrrolidin]-1′-yl)methyl)thiazol-2-yl)acetamide] | 78 | 360 | 3.1 | > 1000 | – |
| CC(=O)Nc1ncc(CN2CCCC3(C2)OCc2cnccc23)s1 (stereo not shown) [Example 68, N-(5-((3H-Spiro[furo[3,4-c]pyridine-1,3′-piperidin]-1′-yl)methyl)thiazol-2-yl)acetamide] | 84 | 6 | 10.7 | 18 | – |
| CC(=O)Nc1nc(F)c(CN2CC3(C[C@@H]2C)OCc2ccccc23)s1 (stereo partly drawn) [Example 58, N-(4-Fluoro-5-(((5′S)-5′-methyl-3H-spiro[isobenzofuran-1,3′-pyrrolidin]-1′-yl)methyl)thiazol-2-yl)acetamide] | – | 4.2 | – | 14 | – |
| CC(=O)Nc1nc(F)c(CN2CCC[C@]3(C2)OCc2cnccc23)s1 (single isomer, unassigned) [Example 70-b] | – | 850 | – | > 1000 | – |
| CC(=O)Nc1nc(F)c(CN2CCCC3(C2)OCc2ccccc23)s1 (stereo not shown) [Example 56, N-(5-((3H-Spiro[isobenzofuran-1,3′-piperidin]-1′-yl)methyl)-4-fluorothiazol-2-yl)acetamide] | – | 17 | – | 112 | – |
| CC(=O)Nc1ncc(CN2CCC3(C2)OCc2cnccc23)s1 (stereo not shown) [Example 66, N-(5-((3H-Spiro[furo[3,4-c]pyridine-1,3′-pyrrolidin]-1′-yl)methyl)thiazol-2-yl)acetamide] | – | 210 | – | 794 | – |
